{"source": "paper doi:10.1101/2023.11.15.567208", "about": "(bioRxiv, 2024)", "key": {"[1]": {"assay": "Chloroquine-induced itch, scratching bouts", "type": "in vivo, mouse", "details": "20 μl of 25 μM chloroquine diphosphate intradermal, nape of neck; scratching bouts in 15 min; WT n=8, DKO n=11", "procedure": "Hair from the nape of the mouse’s neck was removed 2–3 days prior to behavioral experiments using VEET hair removal cream and the area thoroughly washed and moisturizing cream applied. Mice were habituated to transparent acrylic chambers (10cm × 10cm × 13cm) 30 minutes prior to injection. Post habituation, a blinded investigator injected 20 μl of 25 μM Chloroquine diphosphate salt (Sigma-Aldrich: C6628) solution in 0.9% saline intradermally into the nape of the neck using a 31G insulin syringe. Videos were quantified by a separate blinded investigator with a scratching bout counted each time the mouse attended to the injected area with the hind paw after the paw was removed from the floor or mouth."}, "[2]": {"assay": "LiCl conditioned taste aversion", "type": "in vivo, mouse", "details": "lithium chloride 200 mg/kg injection paired with 15 mM saccharin; WT n=7, DKO n=6", "procedure": "Mice were single-housed and habituated for 3 days to drink from two glass bottles with stainless-steel ball-bearing spouts. Mice then received 3 days of training, where they were water-deprived for 22 hours followed by 30 mins exposure to a single water-containing bottle, then 90 mins exposure to both bottles. On the conditioning day, after 22 hours of water deprivation, mice were exposed to a single bottle containing saccharin water (15 mM) for 45 mins. Mice were then injected with lithium chloride (200 mg/kg) or PBS, and then given ordinary water for 75 mins. The animals were then water deprived for a further 22 hours. On the test day, mice were simultaneously exposed to a bottle containing water and a bottle containing saccharin for 45 mins. The volume of each solution consumed was measured by weighing the bottles before and after. To calculate the saccharin preference index of each animal, the volume of saccharin consumed was divided by the total of fluid consumed, with a value less than 0.5 indicating the development of an aversion to saccharin. […]\nbioRxiv preprint doi: https://doi.org/10.1101/2023.11.15.567208; this version posted December 2, 2024. […]\nFigure 2 – f igure supplement 2. Tac1::Calca DKO mice develop LiCl-induced conditioned taste aversion (A) Quantification of conditioned taste aversion (CT A) test in W T (blue ) and DKO (red) mice. […]"}, "[3]": {"details": "0.6% acetic acid, 10 μl per gram, intraperitoneal; writhes in 15 min starting 5 min after injection; WT n=9, DKO n=7", "procedure": "Mice were habituated on a plexiglass stand for 1 hour. 0.6% of acetic acid was injected intraperitoneally at a dose of 10 μl per gram weight of the animal. Mice were videotaped for 20 minutes. The number of writhes was quantified post-hoc by a blinded observer during a 15-minute interval between 5 and 20 minutes after injection."}, "[4]": {"assay": "Hindpaw swelling / oedema, paw volume", "type": "in vivo, mouse", "details": "for Swelling of the hindpaw: hindpaw of DKO mice compared with WT, observation on injection; for Paw oedema (paw volume): intraplantar injection, volume normalized to uninjected paw, capsaicin WT n=9, DKO n=7, AITC n=8 each", "procedure": "(§1) Mice were anesthetized using isoflurane. 200 μl of Evans Blue dye was injected into the mouse’s tail vein. 15 mins later, one hindpaw was injected with an algogen. After a further 30 mins, the volume of each paw was measured by displacement using a plethysmometer (Ugo Basile). Both paws were then cut at the ankle and placed in tubes in the oven at 55 °C for 24 hours to dry. 1 ml of formamide was then added to each paw and incubated for 4–6 days at 55 °C to extract the dye from the paw tissue. 50 μl samples of dye-infused formamide from each paw were then dispensed to a 96 well plate in duplicate, along with a range of Evans blue dilutions in formamide to generate a standard curve. The optical density of each sample was then measured using a plate-reader, and the concentration of Evans Blue per paw sample interpolated from the standard curve to generate an index of extravasation in that paw."}, "[5]": {"target": "T1, Substance P receptor (NKR1) (Mus musculus, UniProt P30548)", "T1 construct": "T2A self-cleaving peptide remnant (from the polycistronic P2A-TACR1-T2A cassette) (C); expressed in transfected cells; host or cells: Flp-In T-REx HEK293 (Thermo Fisher Scientific, R78007), lentiviral transduction, hygromycin selection", "T1 sequence (P30548 whole entry)": "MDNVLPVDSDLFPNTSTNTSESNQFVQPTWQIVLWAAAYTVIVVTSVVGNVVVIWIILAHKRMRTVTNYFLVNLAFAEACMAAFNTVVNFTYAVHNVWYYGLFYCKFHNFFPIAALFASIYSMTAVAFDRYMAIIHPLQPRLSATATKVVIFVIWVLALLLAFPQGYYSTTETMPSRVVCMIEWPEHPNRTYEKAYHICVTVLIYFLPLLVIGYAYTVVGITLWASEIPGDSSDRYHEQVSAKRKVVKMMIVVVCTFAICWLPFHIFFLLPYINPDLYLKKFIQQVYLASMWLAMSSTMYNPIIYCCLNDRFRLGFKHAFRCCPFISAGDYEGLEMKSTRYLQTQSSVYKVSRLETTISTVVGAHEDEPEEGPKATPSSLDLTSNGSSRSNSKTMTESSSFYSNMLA", "assay": "Co-culture of DRG neurons with Substance P-sniffer cells, capsaicin-evoked Substance P release", "type": "cell-based", "details": "capsaicin 10 μM, n=12 wells from 2 mice; for Substance P-sniffer GCaMP response, WT DRG: co-culture with WT (control) DRG neurons"}, "[6]": {"assay": "Chemical algogens, licking behavior after intraplantar injection", "type": "in vivo, mouse", "details": "20 μl intraplantar, time licking in 5 min", "procedure": "0.3% capsaicin in 80% saline / 10% Tween-80 / 10% ethanol or 1% AITC in saline was injected into the plantar surface of the hind paw. The injected volume for both was 20 μl. Mice were video-taped for 5 minutes. A blinded observer scored the amount of time in seconds the mouse spent licking the injected paw in a 5-minute time period."}, "[7]": {"test_system": "dorsal horn network activation", "assay": "Capsaicin-evoked dorsal horn Fos staining", "type": "in vivo", "details": "capsaicin 0.3% into right hindpaw; WT n=5, DKO n=4; mean Fos puncta of 5 sections per mouse"}, "[8]": {"assay": "Plasma extravasation, Evans blue dye", "type": "in vivo, mouse", "details": "Evans blue optical density, normalized to uninjected paw; capsaicin WT n=9, DKO n=7; AITC n=8 each", "procedure": "as §1"}, "[9]": {"target": "T2, CGRP receptor (Calcrl and Ramp1) (Mus musculus, UniProt Q9R1W5+Q9WTJ5)", "T2 construct": "expressed in transfected cells; host or cells: HEK293; Calcrl/Gα15/GCaMP6s by PiggyBac transposase (puromycin), Ramp1 by pSBbi-Neo-cmv-TETo2-RAMP1 IRES-mTagBFP2-NLS (geneticin); doxycycline-induced", "T2 sequence (Q9R1W5 23-463)": "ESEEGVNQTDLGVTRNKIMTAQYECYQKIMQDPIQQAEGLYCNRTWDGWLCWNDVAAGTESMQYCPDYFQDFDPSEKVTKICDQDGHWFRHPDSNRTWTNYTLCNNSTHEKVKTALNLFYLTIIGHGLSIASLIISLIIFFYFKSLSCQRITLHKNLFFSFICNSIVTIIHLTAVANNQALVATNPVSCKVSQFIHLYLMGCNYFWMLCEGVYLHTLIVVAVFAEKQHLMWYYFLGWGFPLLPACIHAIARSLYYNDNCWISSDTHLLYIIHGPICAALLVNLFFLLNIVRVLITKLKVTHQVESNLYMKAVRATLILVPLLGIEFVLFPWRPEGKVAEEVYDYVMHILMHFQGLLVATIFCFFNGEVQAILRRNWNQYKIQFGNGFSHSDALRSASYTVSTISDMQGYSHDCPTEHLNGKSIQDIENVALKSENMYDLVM", "T2 sequence (Q9WTJ5 27-148)": "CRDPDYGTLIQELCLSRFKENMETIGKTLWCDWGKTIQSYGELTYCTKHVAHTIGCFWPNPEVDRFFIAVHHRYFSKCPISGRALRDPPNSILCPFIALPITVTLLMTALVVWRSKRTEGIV", "assay": "Co-culture of DRG neurons with CGRP-sniffer cells, capsaicin-evoked CGRPα release", "type": "cell-based", "details": "capsaicin 10 μM, n=18 wells from 3 mice"}, "[10]": {"assay": "Acetone evoked cold response", "type": "in vivo, mouse", "details": "acetone droplet on paw; time licking in 60 s; WT n=12, DKO n=12", "procedure": "Mice were habituated on a plexiglass floor stand for 1 hour. Mice were videotaped as acetone was applied to the plantar region of their hind paw. Acetone was applied using a custom-made applicator, consisting of a 1ml syringe and plastic well where acetone was pushed out to generate a droplet for applying to the paw. Behavior was scored post-hoc by a blinded observer and the total amount of time spent licking the paw in a 60 second time interval was recorded. The experiment was repeated for a second trial and average scores were used."}, "[11]": {"details": "ref MacDonald et al., 2021; cited from earlier work", "from_the_text": "Lastly, we investigated how dual peptide deletion affected the development of allodynia symptoms, where innocuous stimuli are perceived as painful, in two mouse models of neuropathic pain ([Jensen and Finnerup, 2014])."}, "[12]": {"assay": "Oxaliplatin cold allodynia, Cold Plate", "type": "in vivo, mouse", "details": "one day after intraplantar oxaliplatin; Cold Plate 10 °C, 5 min; WT n=9, DKO n=6", "from_the_text": "The plate was set to the desired temperature. A camera set up with a mirror was used for better visibility of the mouse on the hot plate. A clear cylindrical tube was placed around the hot plate to ensure the mouse cannot escape. Once the hot plate reached the set temperature, the mouse was placed on the hot plate and the top of the cylinder was covered. At the cut-off time, the mouse was taken off the hot plate and placed back in the cage. The latency to lick was scored post-hoc using the recorded videos by a blinded observer.\nChemotherapy-induced neuropathy was induced in mice by intraplantar injection of oxaliplatin into the left hind paw ([Deuis et al., 2013]; [MacDonald et al., 2021]). Oxaliplatin was made up to a dose of 80 μg in 40 μl of 5% glucose solution, due to its instability in chloride-containing saline solution. The number of nocifensive behaviors in 5 mins was assessed on the Cold Plate held at 10 °C 24 hours later."}, "[13]": {"assay": "Inflammatory pain model, Hargreaves radiant heat", "type": "in vivo, mouse", "details": "PGE2 20 μl, 500 nM intraplantar", "procedure": "The radiant heat stimulus was aimed for the centre of the plantar region of the mouse’s hind paw. The active intensity of the low stimulus was 40 intensity units, and of the high stimulus 55. The response latency was recorded for 5 trials with 10-minute breaks in between each trial.\nCFA and PGE2 was purchased from Sigma. 20 μl of CFA was injected into the heel of the hind paw. PGE2 (20 μl, 500 nM) was injected into the plantar surface of the hindpaw, and behavior was assessed over the same time-frame that produces in vivo sensitization of nociceptor responses (up to 120 minutes). Inflammation-induced hypersensitivity was measured using the Hargreaves and the von Frey, as described above."}}, "note": "“Also recorded” adds a separate entry of the source.", "data": [{"smiles": "CCN(CC)CCCC(C)Nc1ccnc2cc(Cl)ccc12", "note": "(centres unmarked) [chloroquine]", "values": [{"measurement": "Scratching", "setting": "[1]", "value": "DKO mice scratched robustly following intradermal chloroquine injection, a response indistinguishable from WT animals"}]}, {"smiles": "[Cl-].[Li+]", "note": "[LiCl, lithium chloride]", "values": [{"measurement": "Conditioned taste aversion (saccharin preference)", "setting": "[2]", "value": "pr onoun ced; also recorded: strong and indistinguishable conditioned taste aversion in both WT and DKO mice"}]}, {"smiles": "CC(=O)O", "note": "[acetic acid]", "values": [{"measurement": "Writhing behavior", "setting": "[3]", "value": "comparable writhing behavior in both WT and DKO mice"}]}, {"smiles": "COc1cc(CNC(=O)CCCC/C=C/C(C)C)ccc1O", "note": "[capsaicin]", "values": [{"measurement": "Swelling of the hindpaw", "setting": "[4]", "value": "provoked swelling of the hindpaw of DKO mice to a similar extent as WT mice"}, {"measurement": "Paw oedema (paw volume)", "setting": "[4]", "value": "both WT and DKO mice show paw swelling; also recorded: no appreciable differences in capsaicin-induced swelling between WT and DKO mice"}, {"measurement": "Substance P-sniffer GCaMP response, DKO DRG", "setting": "[5]; co-culture with DKO DRG neurons", "value": "no Substance P-sniffer cell responses"}, {"measurement": "Substance P-sniffer GCaMP response, WT DRG", "setting": "[5]", "value": "robust GCaMP responses"}, {"measurement": "Substance P-sniffer GCaMP response, WT DRG", "setting": "[5]; listed as Capsaicin", "value": "increase in Substance P-sniffer GCaMP6s fluorescence"}, {"measurement": "Licking behavior, capsaicin", "setting": "[6]; 0.3% capsaicin, WT n=9, DKO n=8", "value": "evoked coping-like licking responses in both genotypes, however responses were variable and although decreased licking was observed in some DKO mice, differences did not reach statistical significance"}, {"measurement": "Dorsal horn Fos expression, capsaicin-evoked", "setting": "[7]", "value": "No differences in dorsal horn Fos expression were observed"}, {"measurement": "Plasma extravasation", "setting": "[8]", "value": "both WT and DKO mice show paw swelling and plasma extravasation; also recorded: plasma extravasation was intact in DKO mice"}, {"measurement": "CGRP-sniffer calcium response, WT DRG", "setting": "[9]", "value": "strong increases in calcium"}, {"measurement": "CGRP-sniffer calcium response, WT DRG", "setting": "[9]; listed as Capsaicin", "value": "increase in CGRP-sniffer GCaMP6s fluorescence"}]}, {"smiles": "CC(C)=O", "note": "[acetone]", "values": [{"measurement": "Cold response evoked by acetone", "setting": "[10]", "value": "the same between groups"}]}, {"smiles": "C=CCN=C=S", "note": "[AITC, allyl isothiocyanate]", "values": [{"measurement": "Swelling of the hindpaw", "setting": "[4]", "value": "provoked swelling of the hindpaw of DKO mice to a similar extent as WT mice"}, {"measurement": "Paw oedema (paw volume)", "setting": "[4]", "value": "both WT and DKO mice show paw swelling"}, {"measurement": "Licking behavior, AITC", "setting": "[6]; 1% AITC in saline, WT n=12, DKO n=12", "value": "evoked similar licking behavior to capsaicin that was unaffected by peptide deletion"}, {"measurement": "Plasma extravasation", "setting": "[8]", "value": "both WT and DKO mice show paw swelling and plasma extravasation"}]}, {"smiles": "O=C1[O][Pt]2([NH][C@@H]3CCCC[C@H]3[NH]2)[O]C1=O", "note": "[oxaliplatin]", "values": [{"measurement": "Cold allodynia (literature)", "setting": "[11]", "value": "evokes extreme cold allodynia"}, {"measurement": "Cold allodynia, pain-like behaviors", "setting": "[12]", "value": "pronounced pain-like behaviors"}]}, {"smiles": "CCCCC[C@H](O)/C=C/[C@H]1[C@H](O)CC(=O)[C@@H]1C/C=C\\CCCC(=O)O", "note": "[PGE2, Prostaglandin E2]", "values": [{"measurement": "Swelling of the hindpaw", "setting": "[4]", "value": "provoked swelling of the hindpaw of DKO mice to a similar extent as WT mice"}, {"measurement": "WT vs DKO difference in Hargreaves latency after PGE2, post-hoc", "setting": "[13]; post-hoc Sidak's test, WT n=10, DKO n=10", "value": "only the 120 min time-point shows a significant difference (p=0.025)"}, {"measurement": "Heat and mechanical hypersensitivity, PGE2", "setting": "[13]; up to 120 min, Hargreaves (n=10 each) and von Frey (n=6 each)", "value": "short-lasting heat and mechanical hypersensitivity to a similar extent in both WT and DKO mice"}]}]}
